Source: patent US4638005A, “Monoquaternized pyrazinium compounds and their use as electron carriers in photosynthetic processes” (The Coca-Cola Company, priority 1983, dated 1987)
Where a name gives a salt, the structure may show the parent alone.

Key:
nitrogenase [1] = molecular target: T1, nitrogenase (Azotobacter vinelandii, UniProt P00459); assay: Chloroplast-coupled evolution of hydrogen by nitrogenase in the absence of substrate; format: biochemical; conditions: for ACTIVITY RELATIVE TO FERREDOXIN (%) / ACTIVITY (nmoles H2 /mg protein/min): Table II, hydrogen evolution; for ACTIVITY (nmoles H2 /mg protein/min): no nitrogen or acetylene, synthetic carriers 2 mM, ferredoxin 0.2 mM
T1 construct: the nitrogenase sample was prepared from a culture of Azotobacter vinelandii; endogenous in cells; host or cells: Azotobacter vinelandii culture; French press lysate, 10,000 x g supernatant (crude)
Procedure: (§1) For the bioassay, the nitrogenase sample was prepared from a culture of Azotobacter vinelandii grown to a cell density of about 1 g/l. The cells harvested by centrifugation were broken in a French press, cell debris spun off at 10,000 XG for 1 hr., and the supernatant containing 40 mg/ml protein was used in the bioassay experiments. […] chloroplasts from spinach leaves as described by Benemann were also used. The synthetic carriers were tested in aqueous solutions at concentrations of 2 mM, while the standard, clostridial ferredoxin, was used in 0.2 mM aqueous solution. The concentrations of carriers in the assay mixtures were chosen so as to guarantee carrier saturation conditions. Thus, the observed differences in rates of ethylene production from the substrate acetylene were assigned directly to variations in the efficiency of electron transfer from the illuminated chloroplast to the nitrogenase. The results obtained for acetylene reduction (nitrogen fixation) using the pyrazinium compounds of Examples 1 through 42 are summarized in Table I and are expressed as nmoles of ethylene produced per mg protein per minute.
It has been recognized for sometime the connection existing between hydrogen metabolism and nitrogen fixation. […] When nitrogenase was purified extensively, as mentioned above, it became apparent that in addition to nitrogen, nitrogenase also catalyzed the reduction of protons. The evolution of hydrogen is particularly active in the absence of the normal substrates for nitrogenase (nitrogen, acetylene, cyanide, azide, etc.), and is dependent upon a strong reductant and adenosine triphosphate hydrolysis. Since hydrogen evolution is not inhibited by CO, but reduction of nitrogen and other substrates is, the reduction of protons presumably occurs at a site other than the site of nitrogen reduction, H. C. Winter, et. al., Ann Rev. Biochem, 45, 409 (1976). Accordingly, with the same bioassay system and with exclusion of nitrogen, and acetylene, the activity of the pyrazinium compounds to act as carriers for production of hydrogen has been determined.
The results of this study, which are summarized in Table II, indicate that the pyrazinium salts that mediate the reduction of acetylene with electrons from the photoexcited chloroplast, are also mediating the reduction of protons by the nitrogenase.

nitrogenase [2] = molecular target: T1, nitrogenase; assay: Chloroplast-coupled reduction of acetylene to ethylene by nitrogenase (electron carrier bioassay of Benemann); format: biochemical; conditions: for ACTIVITY RELATIVE TO FERREDOXIN (%) / ACTIVITY (nmoles C2 H4 /mg protein/min): Table I; for ACTIVITY RELATIVE TO FERREDOXIN (%): acetylene reduction to ethylene; for ACTIVITY (nmoles C2 H4 /mg protein/min): illuminated spinach chloroplasts, synthetic carriers 2 mM, clostridial ferredoxin 0.2 mM; for ETHYLENE FORMATION % Ferredoxin Activity: Table III ranking; for % FERREDOXIN ACTIVITY: Table IV, acetylene reduction
Procedure: The activity of the pyrazinium compounds as electron carriers in an illuminated photocouple process using isolated chloroplasts and the reductive enzyme catalyst nitrogenease has been determined using the bioassay of Benemann, et al., Proc. Natl. Acad. Sci. USA, 64, 1079(1969). In this method, the carrier activity is measured as a function of nitrogenase reduction of acetylene to ethylene, the rate of production of ethylene being the direct measurement.
as §1

[3] = Polarographic half-wave potential (first wave reduction); format: physicochemical; conditions: 0.1 M phosphate buffer pH 7.55, 25° C.
Excerpt: Sci., 65, 1471(1976). Therefore, it was of interest to measure polarographically the half-wave potentials of the several pyrazinium salts under consideration, to determine the possible effect of structure upon their redox potentials.

T1 sequence (P00459 2-290 limits assumed): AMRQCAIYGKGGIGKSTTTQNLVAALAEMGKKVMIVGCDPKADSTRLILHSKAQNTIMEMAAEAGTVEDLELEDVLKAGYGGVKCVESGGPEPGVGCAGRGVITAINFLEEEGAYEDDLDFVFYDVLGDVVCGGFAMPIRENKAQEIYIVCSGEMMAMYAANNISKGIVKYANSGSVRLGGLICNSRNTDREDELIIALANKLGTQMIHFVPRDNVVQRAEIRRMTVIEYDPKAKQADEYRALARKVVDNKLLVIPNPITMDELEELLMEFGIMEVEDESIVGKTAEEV

Molecule	ACTIVITY RELATIVE TO FERREDOXIN (%) (nitrogenase [1])	ACTIVITY (nmoles H2 /mg protein/min) (nitrogenase [1])	ACTIVITY RELATIVE TO FERREDOXIN (%) (nitrogenase [2])	ACTIVITY (nmoles C2 H4 /mg protein/min) (nitrogenase [2])	ETHYLENE FORMATION % Ferredoxin Activity (nitrogenase [2])	% FERREDOXIN ACTIVITY (nitrogenase [2])	E1/2 vs. SCE (mV) [3]	HYDROGEN EVOLUTION % Ferredoxin Activity (nitrogenase [1]; Table III ranking)
C[n+]1ccnc(C(O)CO)c1.[I-] (stereo not drawn) [Compound 2200, 1-Methyl-3-(1,2-dihydroxyethyl)pyrazinium iodide]	98%	26.2 nmoles H2 /mg protein/min	55%	7.5 nmoles C2 H4 /mg protein/min	55%	55%	-704 mV	
Cc1c[n+](CCCS(=O)(=O)[O-])c(C)cn1 [Compound 700, 1-(3-Sulfonylpropyl)-2,5-dimethylpyrazine]	74%	19.7 nmoles H2 /mg protein/min	104%	14.0 nmoles C2 H4 /mg protein/min	104%	104%	-700 mV	
C[n+]1ccnc(S(=O)(=O)[O-])c1 [Compound 2000]	100%	26.6 nmoles H2 /mg protein/min	61%	8.3 nmoles C2 H4 /mg protein/min	61%	61%	-573 mV	
1-Methyl-3(2)-hydroxymethyl-6(5)-methylpyrazinium iodide [Compound 500]	46%	12.3 nmoles H2 /mg protein/min	22%	3.0 nmoles C2 H4 /mg protein/min	22%	22%	-751 mV	
C[n+]1ccnc(C(N)=O)c1 [Compound 4600]	0%	0.0 nmoles H2 /mg protein/min	0%	0.0 nmoles C2 H4 /mg protein/min	0%	0%	-479 mV	
C[n+]1ccnc(C(CCCS(=O)(=O)[O-])CCCS(=O)(=O)O)c1 (stereo not drawn) [Compound 1800, 4-(1-Methyl-3-pyrazinyl)heptane-1,7-disulfonate sodium salt]	129%	34.4 nmoles H2 /mg protein/min	124%	16.7 nmoles C2 H4 /mg protein/min	124%	124%	-683 mV	
CC(c1c[n+](C)ccn1)S(=O)(=O)[O-] (stereo not drawn) [Compound 2400]	128%	34.1 nmoles H2 /mg protein/min	105%	14.2 nmoles C2 H4 /mg protein/min	105%	105%	-701 mV	
CCC(=O)Cc1c[n+](C)ccn1 [Compound 3500, 1-Methyl-3-(2-oxybutyl)pyrazinium iodide]	19%	5.0 nmoles H2 /mg protein/min	5%	0.7 nmoles C2 H4 /mg protein/min	5%	5%	-575 mV	
Cc1c[n+](C)cc(CO)n1.[I-] [Compound 400, 1-Methyl-3-hydroxymethyl-5-methylpyrazinium iodide]	74%	19.7 nmoles H2 /mg protein/min	26%	3.5 nmoles C2 H4 /mg protein/min	26%	26%	-738 mV	
C[n+]1ccnc(CC(C(O)CO)S(=O)(=O)[O-])c1 (stereo not drawn) [Compound 4100]	73%	19.4 nmoles H2 /mg protein/min	110%	14.8 nmoles C2 H4 /mg protein/min	110%	110%	-720 mV	
O=C(O)CC[n+]1ccncc1.[Br-] [Compound 800, 1-(2-Carboxyethyl)pyrazinium bromide]	28%	7.5 nmoles H2 /mg protein/min	50%	6.8 nmoles C2 H4 /mg protein/min	50%	50%	-625 mV	
CCC(O)Cc1c[n+](C)ccn1.[I-] (stereo not drawn) [Compound 3400, 1-Methyl-3-(2-hydroxybutyl)pyrazinium iodide]	111%	29.7 nmoles H2 /mg protein/min	20%	2.7 nmoles C2 H4 /mg protein/min	20%	20%	-680 mV	
CCc1c[n+](C)ccn1 [Compound 4900]	8%	2.2 nmoles H2 /mg protein/min	2%	0.3 nmoles C2 H4 /mg protein/min	2%	2%	-700 mV	
C[n+]1ccnc(CCO)c1.[I-] [Compound 300, 1-Methyl-3-(2-hydroxyethyl)pyrazinium iodide]	30%	8.1 nmoles H2 /mg protein/min	41%	5.5 nmoles C2 H4 /mg protein/min	41%	41%	-683 mV	
C=Cc1c[n+](C)ccn1 [Compound 5100]		2.8 nmoles H2 /mg protein/min		1.8 nmoles C2 H4 /mg protein/min	13%	13%		10%
C[n+]1ccnc(CCC(=O)O)c1.[I-] [Compound 3900, 1-Methyl-3-(2-carboxyethyl)pyrazinium iodide]	45%	11.9 nmoles H2 /mg protein/min	27%	3.7 nmoles C2 H4 /mg protein/min	27%			
